Experimental data from patent publication US9657002B2, “Oxindole derivatives carrying an oxetane substituent and use thereof for treating vassopressin-related diseases” (AbbVie Deutschland GmbH & Co. KG, priority 2013, dated 2017).
Where two headings read alike, the source gives them in different places.

Key:
[1] = molecular target: T1, human vasopressin V1b receptor (Homo sapiens, UniProt P47901); assay: biochemical
T1 sequence (P47901 1-424): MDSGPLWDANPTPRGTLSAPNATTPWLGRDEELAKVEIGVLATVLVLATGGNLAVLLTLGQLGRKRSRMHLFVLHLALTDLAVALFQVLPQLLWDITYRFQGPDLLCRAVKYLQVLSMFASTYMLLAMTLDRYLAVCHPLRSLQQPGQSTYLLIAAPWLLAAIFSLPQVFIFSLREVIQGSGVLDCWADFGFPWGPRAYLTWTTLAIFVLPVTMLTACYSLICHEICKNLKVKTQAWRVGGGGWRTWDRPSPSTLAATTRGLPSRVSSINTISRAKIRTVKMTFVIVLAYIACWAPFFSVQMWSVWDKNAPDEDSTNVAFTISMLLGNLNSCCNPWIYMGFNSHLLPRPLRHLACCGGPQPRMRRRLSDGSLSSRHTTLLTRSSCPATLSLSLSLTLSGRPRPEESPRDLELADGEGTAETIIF

[2] = molecular target: human vasopressin V1a receptor (Homo sapiens, UniProt P37288); assay: Vasopressin V1a receptor binding assay; conditions: selectivity quotient, human V1a vs human V1b
human vasopressin V1a receptor, sequence (P37288 whole entry): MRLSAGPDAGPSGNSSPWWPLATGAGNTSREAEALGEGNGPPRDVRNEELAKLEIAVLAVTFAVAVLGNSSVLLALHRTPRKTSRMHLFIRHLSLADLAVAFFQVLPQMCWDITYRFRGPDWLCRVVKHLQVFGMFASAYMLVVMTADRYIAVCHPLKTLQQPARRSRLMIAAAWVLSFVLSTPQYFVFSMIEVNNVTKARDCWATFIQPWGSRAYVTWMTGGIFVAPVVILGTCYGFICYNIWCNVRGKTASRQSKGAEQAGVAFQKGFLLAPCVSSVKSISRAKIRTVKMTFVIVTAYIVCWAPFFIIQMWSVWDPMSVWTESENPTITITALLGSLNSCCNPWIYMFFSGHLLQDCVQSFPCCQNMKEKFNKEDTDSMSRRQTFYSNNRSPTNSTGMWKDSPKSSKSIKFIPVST

[3] = molecular target: T1, human vasopressin V1b receptor; conditions: read-out: Ki(h-V1b)*, CHO-K1 membranes, 3H-AVP displacement

| Molecule | Ki [1] | Ki(h-V1a)/Ki(h-V1b) [2] | Ki [3] |
| --- | --- | --- | --- |
| COc1ccc(S(=O)(=O)N2C(=O)[C@@](NC(=O)N3CCC(C4CCN(C5COC5)CC4)CC3)(c3cccnc3OC)c3cc(C#N)ccc32)cc1 [Example 36, N-[(3S)-5-cyano-1-(4-methoxyphenyl)sulfonyl-3-(2-methoxy-3-pyridyl)-2-oxo-indolin-3-yl]-4-[1-(oxetan-3-yl)-4-piperidyl]piperidine-1-carboxamide] | 1 to 10 nM | +++ (>75) |  |
| CCOc1ncccc1[C@]1(NC(=O)N2CC3CC2CN3C2CCN(C3COC3)CC2)C(=O)N(S(=O)(=O)c2ccc(OC)cc2OC)c2ccc(C#N)cc21 (stereo partly drawn) [Example 38, N-[(3S)-5-cyano-1-(2,4-dimethoxyphenyl)sulfonyl-3-(2-ethoxy-3-pyridyl)-2-oxo-indolin-3-yl]-5-[1-(oxetan-3-yl)-4-piperidyl]-2,5-diazabicyclo[2.2.1]heptane-2-carboxamide] | 10 to 100 nM | +++ (>75) |  |
| COc1ncccc1[C@]1(NC(=O)N2CCC(C3CCN(C4COC4)CC3)CC2)C(=O)N(S(=O)(=O)c2ccccc2)c2ccc(C#N)cc21 [Example 50, (S)—N-(5-cyano-3-(2-methoxypyridin-3-yl)-2-oxo-1-(phenylsulfonyl)indolin-3-yl)-1′-(oxetan-3-yl)-[4,4′-bipiperidine]-1-carboxamide] | 10 to 100 nM | ++ (25-75) |  |
| CCOc1ncccc1[C@]1(NC(=O)N2CCN(C3CCN(C4(C)COC4)CC3)CC2)C(=O)N(S(=O)(=O)c2ccc(OC)cc2OC)c2ccc(C#N)cc21 [Example 51, (S)—N-(5-cyano-1-((2,4-dimethoxyphenyl)sulfonyl)-3-(2-ethoxypyridin-3-yl)-2-oxoindolin-3-yl)-4-(1-(3-methyloxetan-3-yl)piperidin-4-yl)piperazine-1-carboxamide] | 1 to 10 nM | +++ (>75) |  |
| COc1ccc(S(=O)(=O)N2C(=O)[C@@](NC(=O)N3CCN(C4CCN(C5(C)COC5)CC4)CC3)(c3cccnc3OC)c3cc(C#N)ccc32)c(OC)c1.O=C(O)C(F)(F)F.O=C(O)C(F)(F)F [Example 52, (S)—N-(5-cyano-1-((2,4-dimethoxyphenyl)sulfonyl)-3-(2-methoxypyridin-3-yl)-2-oxoindolin-3-yl)-4-(1-(3-methyloxetan-3-yl)piperidin-4-yl)piperazine-1-carboxamide, 2 trifluoroacetic acid] |  | +++ (>75) | 1 to 10 nM |
| COc1ccc(S(=O)(=O)N2C(=O)[C@@](NC(=O)N3CCN(C4CCN(C5COC5C)CC4)CC3)(c3cccnc3OC)c3cc(C#N)ccc32)c(OC)c1.O=C(O)C(F)(F)F.O=C(O)C(F)(F)F (stereo partly drawn) [Example 53, N—((S)-5-cyano-1-((2,4-dimethoxyphenyl)sulfonyl)-3-(2-methoxypyridin-3-yl)-2-oxoindolin-3-yl)-4-(1-(2-methyloxetan-3-yl)piperidin-4-yl)piperazine-1-carboxamide, 2 trifluoroacetic acid] |  | ++ (25-75) | 1 to 10 nM |
| COc1ccc(S(=O)(=O)N2C(=O)[C@@](NC(=O)N3CCN(C4CCN(C5COC5)CC4)CC3)(c3cc(OC)ccc3OC)c3cc(C#N)ccc32)c(OC)c1 [Example 54, (S)—N-(5-cyano-3-(2,5-dimethoxyphenyl)-1-((2,4-dimethoxyphenyl)sulfonyl)-2-oxoindolin-3-yl)-4-(1-(oxetan-3-yl)piperidin-4-yl)piperazine-1-carboxamide] | < 1 nM | ++ (25-75) |  |
| (S)—N-(5-cyano-1-((2,4-dimethoxyphenyl)sulfonyl)-3-(2-ethoxypyridin-3-yl)-2-oxoindolin-3-yl)-4-(4-(oxetan-3-yl)piperazin-1-yl)piperidine-1-carboxamide [Example 2] |  | ++ (25-75) | 1 to 10 nM |

Continued, in another order:

| Ki [1] | Ki(h-V1a)/Ki(h-V1b) [2] | Molecule | Ki [3] |
| --- | --- | --- | --- |
| 1 to 10 nM | +++ (>75) | CCOc1ccc(OC)cc1[C@]1(NC(=O)N2CCN(C3CCN(C4COC4)CC3)CC2)C(=O)N(S(=O)(=O)c2ccc(F)cc2OC)c2ccc(C#N)cc21 [Example 35, N-[(3S)-5-cyano-3-(2-ethoxy-5-methoxy-phenyl)-1-(4-fluoro-2-methoxy-phenyl)sulfonyl-2-oxo-indolin-3-yl]-4-[1-(oxetan-3-yl)-4-piperidyl]piperazine-1-carboxamide] |  |
| < 1 nM | +++ (>75) | COc1cc(F)ccc1S(=O)(=O)N1C(=O)[C@@](NC(=O)N2CCC(C3CCN(C4COC4)CC3)CC2)(c2cccnc2OC)c2cc(C#N)ccc21 [Example 37, N-[(3S)-5-cyano-1-(4-fluoro-2-methoxy-phenyl)sulfonyl-3-(2-methoxy-3-pyridyl)-2-oxo-indolin-3-yl]-4-[1-(oxetan-3-yl)-4-piperidyl]piperidine-1-carboxamide] |  |
| 1 to 10 nM | + (10-<25) | COc1ncccc1[C@]1(NC(=O)N2CCC(C3CCN(C4COC4)CC3)CC2)C(=O)N(S(=O)(=O)c2ccc(F)cc2)c2ccc(C#N)cc21 [Example 40, N-[(3S)-5-cyano-1-(4-fluorophenyl)sulfonyl-3-(2-methoxy-3-pyridyl)-2-oxo-indolin-3-yl]-4-[1-(oxetan-3-yl)-4-piperidyl]piperidine-1-carboxamide] |  |
| 10 to 100 nM | + (10-<25) | COc1ncccc1[C@]1(NC(=O)N2CCN(C3CCN(C4COC4)CC3)CC2)C(=O)N(S(=O)(=O)c2ccc(C#N)cc2)c2ccc(C#N)cc21 [Example 43, N-[(3S)-5-cyano-1-(4-cyanophenyl)sulfonyl-3-(2-methoxy-3-pyridyl)-2-oxo-indolin-3-yl]-4-[1-(oxetan-3-yl)-4-piperidyl]piperazine-1-carboxamide] |  |
| 1 to 10 nM | +++ (>75) | COc1ccc(S(=O)(=O)N2C(=O)[C@@](NC(=O)N3CCN(C4CCN(C5COC5)CC4)CC3)(c3cccnc3OC(C)C)c3cc(C#N)ccc32)c(OC)c1 [Example 44, N-[(3S)-5-cyano-1-(2,4-dimethoxyphenyl)sulfonyl-3-(2-isopropoxy-3-pyridyl)-2-oxo-indolin-3-yl]-4-[1-(oxetan-3-yl)-4-piperidyl]piperazine-1-carboxamide] |  |
| 10 to 100 nM | +++ (>75) | COc1cc(C)ccc1S(=O)(=O)N1C(=O)[C@@](NC(=O)N2CCN(C3CCN(C4COC4)CC3)CC2)(c2cccnc2OC)c2cc(C#N)ccc21 [Example 46, N-[(3S)-5-cyano-1-(2-methoxy-4-methyl-phenyl)sulfonyl-3-(2-methoxy-3-pyridyl)-2-oxo-indolin-3-yl]-4-[1-(oxetan-3-yl)-4-piperidyl]piperazine-1-carboxamide] |  |
| 10 to 100 nM | ++ (25-75) | COc1ncccc1[C@]1(NC(=O)N2CCN(C3CCN(C4COC4)CC3)CC2)C(=O)N(S(=O)(=O)c2ccc(C#N)cc2F)c2ccc(C#N)cc21 [Example 47, N-[(3S)-5-cyano-1-(4-cyano-2-fluoro-phenyl)sulfonyl-3-(2-methoxy-3-pyridyl)-2-oxo-indolin-3-yl]-4-[1-(oxetan-3-yl)-4-piperidyl]piperazine-1-carboxamide] |  |
| 1 to 10 nM | +++ (>75) | COc1ccccc1S(=O)(=O)N1C(=O)[C@@](NC(=O)N2CCC(C3CCN(C4COC4)CC3)CC2)(c2cccnc2OC)c2cc(C#N)ccc21 [Example 49, (S)—N-(5-cyano-1-((2-methoxyphenyl)sulfonyl)-3-(2-methoxypyridin-3-yl)-2-oxoindolin-3-yl)-1′-(oxetan-3-yl)-[4,4′-bipiperidine]-1-carboxamide] |  |
| < 1 nM | + (10-<25) | COc1ccc(S(=O)(=O)N2C(=O)[C@@](NC(=O)N3CCC(C4CCN(C5COC5)CC4)CC3)(c3cc(OC)ccc3OC)c3cc(C#N)ccc32)c(OC)c1 [Example 55, (S)—N-(5-cyano-3-(2,5-dimethoxyphenyl)-1-((2,4-dimethoxyphenyl)sulfonyl)-2-oxoindolin-3-yl)-1′-(oxetan-3-yl)-[4,4′-bipiperidine]-1-carboxamide] |  |
